Data reported in PubChem BioAssay (NCI).
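Tested at 5 concentrations; 48 h exposure; 96-well plates; endpoints linearly interpolated, else capped at highest concentration. At the TGI there is no net growth.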

Assays:
Assay in all cases: NCI-60 cell line screen, 48 h
[1] = system: 786-0 renal
[2] = system: A498 renal
[3] = system: A549 NSCLC
[4] = system: ACHN renal
[5] = system: BT-549 breast
[6] = system: CAKI-1 renal
[7] = system: CCRF-CEM leukemia
[8] = system: COLO 205 colon
[9] = system: DU-145 prostate
[10] = system: EKVX NSCLC
[11] = system: HCT-116 colon
[12] = system: HCT-15 colon
[13] = system: HL-60(TB) leukemia
[14] = system: HOP-62 NSCLC
[15] = system: HOP-92 NSCLC
[16] = system: HS 578T breast
[17] = system: HT29 colon
[18] = system: IGROV1 ovarian
[19] = system: K-562 leukemia
[20] = system: KM12 colon
[21] = system: LOX IMVI melanoma
[22] = system: M14 melanoma
[23] = system: MALME-3M melanoma
[24] = system: MCF7 breast
[25] = system: MDA-MB-231 breast
[26] = system: MDA-MB-435
[27] = system: MDA-N
[28] = system: MOLT-4 leukemia
[29] = system: NCI-H226 lung
[30] = system: NCI-H23 lung
[31] = system: NCI-H460 lung
[32] = system: NCI-H522 lung
[33] = system: NCI/ADR-RES ovarian
[34] = system: OVCAR-3 ovarian
[35] = system: OVCAR-4 ovarian
[36] = system: OVCAR-5 ovarian
[37] = system: OVCAR-8 ovarian
[38] = system: PC-3 prostate
[39] = system: RPMI-8226 leukemia
[40] = system: RXF 393 renal
[41] = system: SF-268 CNS
[42] = system: SF-295 CNS
[43] = system: SF-539 CNS
[44] = system: SK-MEL-2 melanoma
[45] = system: SK-MEL-28 melanoma
[46] = system: SK-MEL-5 melanoma
[47] = system: SK-OV-3 ovarian
[48] = system: SN12C renal
[49] = system: SNB-19 CNS
[50] = system: SNB-75 CNS
[51] = system: SR leukemia
[52] = system: SW-620 colon
[53] = system: T-47D breast
[54] = system: TK-10 renal
[55] = system: U251 CNS
[56] = system: UACC-257 melanoma
[57] = system: UACC-62 melanoma
[58] = system: UO-31 renal

Compound: COc1ccc(CNC(C)C(=O)O)cc1 (stereo not drawn)
- TGI [1]: > 100 µM
- TGI [2]: > 100 µM
- TGI [3]: > 100 µM
- TGI [4]: > 100 µM
- TGI [5]: > 100 µM
- TGI [6]: > 100 µM
- TGI [7]: 65.5 µM
- TGI [8]: > 100 µM
- TGI [9]: > 100 µM
- TGI [10]: > 100 µM
- TGI [11]: > 100 µM
- TGI [12]: > 100 µM
- TGI [13]: > 100 µM
- TGI [14]: > 100 µM
- TGI [15]: > 100 µM
- TGI [16]: > 100 µM
- TGI [17]: > 100 µM
- TGI [18]: > 100 µM
- TGI [19]: > 100 µM
- TGI [20]: > 100 µM
- TGI [21]: > 100 µM
- TGI [22]: > 100 µM
- TGI [23]: > 100 µM
- TGI [24]: > 100 µM
- TGI [25]: > 100 µM
- TGI [26]: > 100 µM
- TGI [27]: > 100 µM
- TGI [28]: > 100 µM
- TGI [29]: > 100 µM
- TGI [30]: > 100 µM
- TGI [31]: > 100 µM
- TGI [32]: > 100 µM
- TGI [33]: > 100 µM
- TGI [34]: > 100 µM
- TGI [35]: > 100 µM
- TGI [36]: > 100 µM
- TGI [37]: > 100 µM
- TGI [38]: > 100 µM
- TGI [39]: > 100 µM
- TGI [40]: > 100 µM
- TGI [41]: > 100 µM
- TGI [42]: > 100 µM
- TGI [43]: > 100 µM
- TGI [44]: > 100 µM
- TGI [45]: > 100 µM
- TGI [46]: > 100 µM
- TGI [47]: > 100 µM
- TGI [48]: > 100 µM
- TGI [49]: > 100 µM
- TGI [50]: > 100 µM
- TGI [51]: > 100 µM
- TGI [52]: > 100 µM
- TGI [53]: > 100 µM
- TGI [54]: > 100 µM
- TGI [55]: > 100 µM
- TGI [56]: > 100 µM
- TGI [57]: > 100 µM
- TGI [58]: > 100 µM

Compound: Cc1cc(C)c2c(c1)C1=NCCN1C2(O)c1ccc(Cl)cc1 (stereo not drawn)
- TGI [1]: 29.6 µM
- TGI [2]: 28.6 µM
- TGI [3]: 35.5 µM
- TGI [4]: 29.6 µM
- TGI [5]: 26.4 µM
- TGI [6]: 31.5 µM
- TGI [7]: 54.7 µM
- TGI [8]: 29 µM
- TGI [9]: 40.5 µM
- TGI [10]: 33.3 µM
- TGI [11]: 26 µM
- TGI [12]: 32.4 µM
- TGI [13]: 49.4 µM
- TGI [14]: 29.3 µM
- TGI [15]: 28.6 µM
- TGI [16]: 32 µM
- TGI [17]: 31.5 µM
- TGI [18]: 27.4 µM
- TGI [19]: 65 µM
- TGI [20]: 30 µM
- TGI [21]: 93.4 µM
- TGI [22]: 28.4 µM
- TGI [24]: 34.3 µM
- TGI [25]: 28.2 µM
- TGI [26]: 32.5 µM
- TGI [27]: 28.3 µM
- TGI [28]: > 100 µM
- TGI [30]: 33.1 µM
- TGI [31]: 29.3 µM
- TGI [33]: 30.2 µM
- TGI [34]: 31.4 µM
- TGI [35]: 29.7 µM
- TGI [36]: 33.1 µM
- TGI [37]: 30.2 µM
- TGI [38]: 36.3 µM
- TGI [39]: 33.2 µM
- TGI [40]: 27.6 µM
- TGI [41]: 31 µM
- TGI [42]: 31.4 µM
- TGI [43]: 29 µM
- TGI [44]: 34.7 µM
- TGI [45]: 31 µM
- TGI [46]: 27.7 µM
- TGI [47]: 28.5 µM
- TGI [48]: 30.3 µM
- TGI [49]: 31.7 µM
- TGI [50]: 25 µM
- TGI [51]: 62 µM
- TGI [52]: 29.2 µM
- TGI [53]: 41.7 µM
- TGI [54]: 15.5 µM
- TGI [55]: 32.3 µM
- TGI [56]: 31.9 µM
- TGI [57]: 29.4 µM
- TGI [58]: 26.9 µM
